SMILES strings stand for the structures. “And” between values parts separate entries of the source, which are not always exact repeats. Equal values may be shown once. “Also recorded” adds a separate entry of the source. Read-outs that look alike come from different tables or passages of the source.

The values below come from patent US20180244653A1, “SELECTIVE ALPHA-7 NICOTINIC RECEPTOR AGONISTS AND METHODS FOR MAKING AND USING THEM” (THE REGENTS OF THE UNIVERSITY OF CALIFORNIA, priority 2015, published 2018).

In assay [1] the test system is physiologically induced amnesia mice. Put plainly: ORT with 24 h time delay (natural memory loss). It counts as in vivo. To be noted: 24 h delay; i.p. The procedure:
Both compounds were further evaluated on a physiologic amnesic model by using ORT with 24 h time delay to induce natural memory loss in mice. The appropriate time delay causing amnesia was initially selected by varying delay times (24, 48, and 72 h) between sample and test phase that have identical and different objects, respectively. […] Therefore, 24 h was used as the time delay between sample and test phase.
FIG. 27 illustrates exploration time to familiar (F) and novel (N) objects in test phase of ORT following a time delay. Each mouse was allowed to explore an open field apparatus for 5 min in a habituation phase one day before a sample phase. In the test day, vehicle (SH) and test compounds IND8, QND8 and PNU were injected 1 h before measurement of exploration time. Each mouse was allowed to explore 2 identical objects in the sample phase for 5 min. On the next day (24 h), one of the objects was changed to a new one and the mouse was allowed to explore these objects for 5 min. The exploration time of these objects was recorded. Data are presented as means±SE, n=6-8 mice/group. **p<0.01, ***p<0.001 vs exploration time of familiar object, paired student's t-test.
The DI was calculated and compared with the control group to evaluate IND8, QND8, and PNU-282987 enhancement of cognitive function. Data are shown in FIG. 28, which illustrates discrimination index (TN−TF/TN+TF) of each compound in the test phase of ORT with time delay protocol. There was a significant difference in DI (F6,43=6.097, p<0.001, n=6-8 mice/group). **p<0.01, ***p<0.001 vs vehicle group (SH), one-way ANOVA with Fisher's LSD post hoc comparison.
The apparatus used in this experiment was the same as ORT test. This experiment was divided into 2 parts directed to dose finding and establishing mechanism of action.
For dose finding protocol, the mice were randomly divided into different treatment groups, a control group receiving a vehicle and tested groups receiving PNU-282987 at 3, 10 mg/kg, and IND8, QND8 for 10, 25 μmol/kg, single dose. They were allowed to freely explore the open field apparatus for 5 min for habituation in a day before the experiment (day 1). On the test day (day 2), the test compound was injected 1 h before the sample phase. In this phase, mice were placed in the apparatus to explore two identical objects. On the next day (day 3), one object was changed to a new one and mice were allowed to explore these objects for 5 min in the test phase. For proving cognitive enhancement mediated through α7-nAChRs, the protocol was the same as mentioned above except MLA (3 mg/kg), selective α7-nAChR antagonist, was injected 5 min before test compounds in the sample phase (day 2) to block the cognitive enhancement effect from test compounds. The dose of test compounds is selected from the effective dose from the former experiment. The exploration time of each object was recorded if the nose of mouse came within 3 cm or touched the objects. The discrimination index (DI) was calculated by using (TN−TF)/(TN+TF); TN and TF represented exploration time of new and familiar objects, respectively.

Assay [2] addresses T1, α4β2-nAChRs (Homo sapiens, UniProt P17787+P43681).
T1 construct: expressed in transfected cells; host or cells: HEKtsA201 cells co-expressing TN-XXL
Put plainly: Intact cell competitive radioligand binding assay ([3H]-(±)-epibatidine, SPA), LGIC-CNiFERs. Conditions: 10 μM, more than 50% radioligand displacement.

In assay [3] the target is T2, 5HT3A receptors (Mus musculus, UniProt P23979).
T2 construct: expressed in transfected cells; host or cells: HEK293 cells co-expressing TN-XXL
T2 sequence (P23979 24-489): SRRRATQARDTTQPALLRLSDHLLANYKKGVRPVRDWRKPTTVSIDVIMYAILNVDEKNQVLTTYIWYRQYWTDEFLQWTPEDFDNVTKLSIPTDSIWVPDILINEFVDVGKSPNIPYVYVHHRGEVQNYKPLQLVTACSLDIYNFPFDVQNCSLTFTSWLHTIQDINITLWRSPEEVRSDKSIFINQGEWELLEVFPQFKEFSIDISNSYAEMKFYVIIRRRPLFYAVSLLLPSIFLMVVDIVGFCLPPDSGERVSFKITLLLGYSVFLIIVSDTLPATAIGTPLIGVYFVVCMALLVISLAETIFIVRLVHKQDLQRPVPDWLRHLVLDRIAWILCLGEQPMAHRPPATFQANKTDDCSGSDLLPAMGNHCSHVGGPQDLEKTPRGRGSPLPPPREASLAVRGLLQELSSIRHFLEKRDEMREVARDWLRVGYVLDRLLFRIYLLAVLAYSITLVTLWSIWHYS
The assay is described as follows: Intact cell competitive radioligand binding assay ([3H]-granisetron, SPA), LGIC-CNiFERs. To be noted: for Kd: Kd ± SD, 5HT3A, >10 = did not pass initial screen at 10 μM.

Assay [4] has as its target T2, 5HT3A receptors. Put plainly: FRET functional assay (agonist/antagonist) using LGIC-CNiFERs. Format: cell-based. To be noted: for Kd: competitive antagonist (^C), >10 = did not pass initial screen, vs 5-HT, read-out: Antagonist KA ± SD, 5HT3A; for Functional properties at 5HT3A receptors (agonist / antagonist, type): functional screening and characterization; for EC50: read-out: Agonist EC50 ± SD, 5HT3A. The procedure:
(§1) Initially, the agonist properties of tested compounds were assessed directly. […] All α7-nAChR functional assays were performed in the presence of PNU-120596, an α7-nAChR positive allosteric modulator (PAM), to increase signal and delay the sensitization state of α7-nAChRs enabling the measurement of more prolonged FRET signals.^29 Compounds having agonist responses of >0.20 were determined for EC50, and compounds having inhibition fraction of >0.50 were determined for KA.^25 EC50>13.3 μM and KA>10 μM which are a screening concentration for agonist and antagonist, respectively were reported compounds not taken for further in the screening of receptor occupation and responses.
(§2) Agonist and antagonist elicited responses were characterized using the above CNiFER cell expressing Cys-loop ligand-gated ion channel (LGIC) receptors. […] A 96-well black, clear-bottom microplate (Greiner bio-one, Germany) was coated with poly-D-lysine (Sigma-Aldrich, St. Louis, Mo.) 50 μL/well for 30 min and washed out with Phosphate-Buffered Saline (PBS) (Corning, Cellgro, Manassas, Va.) before plating the cells. After plating and incubation at 37° C. for 1 day, the media was replaced with 100 μL of artificial cerebrospinal fluid (aCSF: 121 mM NaCl, 5 mM KCl, 26 mM NaHCO3, 1.2 mM NaH2PO4H2O, 10 mM glucose, 2.4 mM CaCl2, 1.3 mM MgSO4, 5 mM HEPES, pH 7.4) for 4032 and 5HT3A receptors, whereas 10 μM PNU-120596 (Tocris Bioscience, Bristol, UK) in aCSF with 30 min incubation at 37° C. was used for α7-nAChR. The tested compounds were prepared in aCSF for all receptors except α7-nAChR, where 10 μM PNU-120596, a positive allosteric modulator (PAM) was used. The prepared compounds were added in a separate 96-well polypropylene plate (Costar, Corning, N.Y.). Experiments were conducted at 37° C. using 436-nm excitation. Emitted light was collected at 485 nm and 528 nm. Basal fluorescence was recorded for 30 s, followed by addition of 50 μL of ligand (first addition). Measurements were made at 3.84 s intervals for 2 min to measure the agonistic effect. […] Agonist and antagonist properties were sequentially screened at the final concentration of 13.3 and 10 μM, respectively, which differed from the screening concentration from intact cell binding assay (10 μM).

For assay [5], the target named is T1, α4β2-nAChRs. Described as above. Format: cell-based. To be noted: for Functional properties at α4β2-nAChRs (agonist / antagonist, type): functional screening and characterization. The procedure:
as §1, §2

The target of the next assay is T3, α7-nAChRs (Homo sapiens, UniProt P36544).
T3 construct: expressed in transfected cells; host or cells: HEKtsA201 cells co-expressing TN-XXL
The assay is described as above. Format: cell-based. Conditions: for EC50: in presence of 10 μM PNU-120596, * partial agonist, >10 = did not pass initial screen, read-out: Agonist EC50 ± SD, α7. The procedure:
as §1, §2

Assay [6] has as its target α7/5HT3A chimera receptor (hα7/m5HT3A), used for α7-nAChRs (UniProt P23979+P36544, M226I/T225I). Put plainly: Intact cell competitive radioligand binding assay ([3H]-(±)-epibatidine, SPA), LGIC-CNiFERs. To be noted: for Kd: read-out: Kd ± SD, α7-nAChRs, >10 = did not pass initial screen at 10 μM.
Setting [7] is: 10 μM, more than 50% radioligand displacement.
Setting [8] is: Antagonist KA ± SD, α4β2, competitive antagonist (^C), >10 = did not pass initial screen, vs (±)-epibatidine.
The mark [9] stands for this setting: read-out: Antagonist KA ± SD, α4β2, non-competitive.

For `CCN1C[C@]2(COC(=O)c3ccccc3N3C(=O)C[C@H](C)C3=O)CC[C@H](OC)[C@@]34[C@@H]5C[C@H]6[C@H](OC)[C@@H]5[C@](O)(C[C@@H]6OC)[C@@](O)([C@@H](OC)[C@H]23)[C@@H]14` [MLA, methyllycaconitine, reference compound], in assay [1], the “Discrimination index / cognition enhancement, ORT time delay vs control group” value is on record as “does not enhance episodic memory; also recorded: did not have cognitive enhancement effect”.

As to `c1ccc(-c2ccc(-c3cn(CCN4CCCCC4)nn3)cc2)cc1` [PPRD7, 1-(2-(4-(Biphenyl-4-yl)-1,2,3-triazol-1-yl)ethyl)piperidine], the “Initial screening for binding to α4β2-nAChRs” value on α4β2-nAChRs [2] is listed as “cannot bind to all tested LGIC receptors”. Also, the “Initial screening for binding to 5HT3A receptors” value on 5HT3A receptors [3] (setting [7]) is “cannot bind to all tested LGIC receptors”. On 5HT3A receptors [4], the Kd was greater than 10000 nM; the “Functional properties at 5HT3A receptors (agonist / antagonist, type)” value was “did not pass the functional screening”; the EC50 is greater than 10000 nM. Also, the “Functional properties at α4β2-nAChRs (agonist / antagonist, type)” value on α4β2-nAChRs [5] is listed as “did not pass the functional screening”. Besides, the Kd at α4β2-nAChRs [5] (read-out: Antagonist KA ± SD, α4β2) is greater than 10000 nM. The “Functional properties at α7-nAChRs (agonist / antagonist)” value on α7-nAChRs (functional screening and characterization) is “did not pass the functional screening”. Moreover, the concentration giving a half-maximal response (EC50) on α7-nAChRs is greater than 10000 nM. Moreover, the “Initial screening for binding to α7-nAChRs” value in assay [6] (setting [7]) is reported as “cannot bind to all tested LGIC receptors”.

For `COc1ccc2cc(-c3cn(C4CN5CCC4CC5)nn3)ccc2c1` (stereo not shown) [QND6, 3-(4-(6-Methoxynaphthalen-2-yl)-1,2,3-triazol-1-yl)quinuclidine], at α4β2-nAChRs [2], the “Initial screening for binding to α4β2-nAChRs” value is “associate well with α4β2-nAChRs”. Besides, the Kd on 5HT3A receptors [4] is greater than 10000 nM; on α4β2-nAChRs [5] (setting [8]) it was 7000 ± 4500 nM; at α4β2-nAChRs [5] (setting [9]), 6200 ± 400 nM. Further, the half-maximal effective concentration (EC50) on 5HT3A receptors [4] is greater than 10000 nM; on α7-nAChRs, 22000 ± 6000 nM. At α4β2-nAChRs [5], the “Functional properties at α4β2-nAChRs (agonist / antagonist, type)” value was “mix-competitive antagonist”.

Turning to `Cn1ccc2cc(-c3cn(C4CN5CCC4CC5)nn3)ccc21` (stereo not shown) [QND9, 3-(4-(1-Methyl-indol-5-yl)-1,2,3-triazol-1-yl)quinuclidine], the “Initial screening for binding to α4β2-nAChRs” value at α4β2-nAChRs [2] was “associate well with α4β2-nAChRs”. The values for the EC50 on 5HT3A receptors [4] and on α7-nAChRs were 1380 ± 520 nM and 1000 ± 40 nM, respectively. Further, the Kd at α4β2-nAChRs [5] (setting [8]) came out at 5200 ± 1200 nM; on α4β2-nAChRs [5] (setting [9]), 6500 ± 200 nM; in assay [6] it was 1880 nM. For the same molecule, at α4β2-nAChRs [5], the “Functional properties at α4β2-nAChRs (agonist / antagonist, type)” value is on record as “mix-competitive antagonist”. For the same molecule, the “Fold increase of Kd (α7-nAChRs) compared to IND8” value in assay [6] was 15 fold.

As to `c1ccc2c(-c3cn(C4CN5CCC4CC5)nn3)c[nH]c2c1` (stereo not shown) [QND12, 3-(4-(Indol-3-yl)-1,2,3-triazol-1-yl)quinuclidine], the Kd was 20 to 50 nM and 20 nM on 5HT3A receptors [3]; greater than 10000 nM at α4β2-nAChRs [5] (setting [8]); 920 nM in assay [6]. Moreover, the figures for the EC50 on 5HT3A receptors [4] and on α7-nAChRs were 340 ± 130 nM and 450 ± 140 nM, respectively. The “Fold increase of Kd (α7-nAChRs) compared to IND8” value in assay [6] amounted to 9 fold.

Consider `COC(=O)c1cc(-c2cn(C3CN4CCC3CC4)nn2)ccc1N` (stereo not shown) [QND15, Methyl 2-amino-5-(1-(quinuclidin-3-yl)-1H-1,2,3-triazol-4-yl)benzoate], for which the results for the Kd (on 5HT3A receptors [3]; on α4β2-nAChRs [5] (setting [8]); in assay [6]) were 40 nM, 11600 ± 1000 nM and 3610 nM, respectively. Moreover, the “Functional properties at 5HT3A receptors (agonist / antagonist, type)” value at 5HT3A receptors [4] is given as 5HT3A receptor agonist properties. Besides, the EC50 came to 260 ± 30 nM on 5HT3A receptors [4] and 1340 nM on α7-nAChRs. The “Functional properties at α4β2-nAChRs (agonist / antagonist, type)” value on α4β2-nAChRs [5] is “competitive antagonism”. Besides, in assay [6], the “Fold lower affinity for α7-nAChRs than QND2” value is recorded as 10 fold.
